What was measured:
Assay type in all cases: biochemical
CDK2/CyclinA = target: T1, CDK2/CyclinA (Homo sapiens, UniProt P24941); test: Kinase assay determining CDK2/CyclinA activity; details: read-out: CDK2 (activity range)
T1 construct: purchased Proqinase
Description: Kinase Assays Determining CDK2/CyclinA and CDK5/p35 Activity:
Kinase assays were performed as described by the manufacturers recommendations (Proqinase for CDK2/CyclinA and Upsate for CDK5/p35).

CDK4 = CDK4 (Homo sapiens, UniProt P11802); test: Kinase assay, CDK4 activity range (Table 2)
CDK4, sequence (P11802 whole entry, species assumed): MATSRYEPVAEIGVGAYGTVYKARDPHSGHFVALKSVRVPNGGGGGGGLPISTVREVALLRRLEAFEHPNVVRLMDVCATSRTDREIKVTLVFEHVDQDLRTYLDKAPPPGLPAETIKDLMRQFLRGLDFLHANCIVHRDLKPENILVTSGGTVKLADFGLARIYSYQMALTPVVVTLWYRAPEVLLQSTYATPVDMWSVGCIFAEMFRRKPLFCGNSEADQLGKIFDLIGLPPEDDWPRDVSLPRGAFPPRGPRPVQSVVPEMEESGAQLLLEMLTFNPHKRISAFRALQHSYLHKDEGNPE
CDK4, sequence (P24385 whole entry partner, species assumed): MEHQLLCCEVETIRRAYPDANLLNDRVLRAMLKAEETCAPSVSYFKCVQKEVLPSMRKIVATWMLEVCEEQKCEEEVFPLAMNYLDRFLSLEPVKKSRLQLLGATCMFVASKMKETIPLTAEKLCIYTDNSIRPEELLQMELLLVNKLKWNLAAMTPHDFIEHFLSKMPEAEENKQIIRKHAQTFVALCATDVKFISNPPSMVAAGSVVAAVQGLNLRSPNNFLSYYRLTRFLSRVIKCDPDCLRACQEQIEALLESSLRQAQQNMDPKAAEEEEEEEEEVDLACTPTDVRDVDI

CDK9/Cyclin T1 = target: T2, CDK9/Cyclin T1 (Homo sapiens, UniProt P50750); test: Kinase assay using CDK9/Cyclin T1; details: read-out: CDK9 (activity range)
T2 construct: made in house; host or cells: HEK293 cells, recombinant adenovirus
T2 sequence (P50750 whole entry): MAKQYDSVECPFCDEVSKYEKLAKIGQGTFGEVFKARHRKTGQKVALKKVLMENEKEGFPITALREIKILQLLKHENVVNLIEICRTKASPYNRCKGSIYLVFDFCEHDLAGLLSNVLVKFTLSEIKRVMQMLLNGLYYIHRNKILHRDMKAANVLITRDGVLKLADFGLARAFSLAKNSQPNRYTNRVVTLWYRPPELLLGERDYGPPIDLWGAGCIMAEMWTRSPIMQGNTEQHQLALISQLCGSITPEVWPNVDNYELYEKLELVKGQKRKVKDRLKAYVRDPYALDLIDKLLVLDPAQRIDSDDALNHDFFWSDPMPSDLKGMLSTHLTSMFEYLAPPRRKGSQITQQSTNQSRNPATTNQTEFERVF
T2 sequence (O60563 whole entry partner): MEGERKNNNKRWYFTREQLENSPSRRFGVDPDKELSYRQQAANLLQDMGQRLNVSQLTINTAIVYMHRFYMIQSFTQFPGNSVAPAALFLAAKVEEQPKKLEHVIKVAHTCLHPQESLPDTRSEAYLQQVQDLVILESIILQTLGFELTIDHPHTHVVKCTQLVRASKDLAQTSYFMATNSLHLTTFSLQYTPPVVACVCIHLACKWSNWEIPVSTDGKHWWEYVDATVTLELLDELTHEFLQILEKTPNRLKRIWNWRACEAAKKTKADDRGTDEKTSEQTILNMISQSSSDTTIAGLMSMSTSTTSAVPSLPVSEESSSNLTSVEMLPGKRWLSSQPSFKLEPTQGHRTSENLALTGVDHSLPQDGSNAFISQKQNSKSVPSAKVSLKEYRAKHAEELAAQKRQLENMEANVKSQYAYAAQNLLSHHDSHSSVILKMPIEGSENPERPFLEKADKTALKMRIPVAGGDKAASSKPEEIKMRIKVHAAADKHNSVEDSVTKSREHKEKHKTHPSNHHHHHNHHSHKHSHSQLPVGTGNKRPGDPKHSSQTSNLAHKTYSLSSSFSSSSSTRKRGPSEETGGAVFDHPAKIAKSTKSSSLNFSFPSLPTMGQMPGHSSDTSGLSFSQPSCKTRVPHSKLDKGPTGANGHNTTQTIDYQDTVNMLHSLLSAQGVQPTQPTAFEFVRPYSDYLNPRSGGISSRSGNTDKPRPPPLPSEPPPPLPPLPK
How it was run: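 Recombinant CDK9/Cyclin T1 produced via adenoviral expression from gateway-cloned cDNAs. Kinase reaction run essentially per a published protocol.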

GSK-3β = GSK-3β (Homo sapiens, UniProt P49841); test: General kinase assay, selectivity panel: GSK-3β; details: 10 μM of compound, in comparison to DMSO (0% inhibition)
GSK-3β, sequence (P49841 whole entry, species assumed): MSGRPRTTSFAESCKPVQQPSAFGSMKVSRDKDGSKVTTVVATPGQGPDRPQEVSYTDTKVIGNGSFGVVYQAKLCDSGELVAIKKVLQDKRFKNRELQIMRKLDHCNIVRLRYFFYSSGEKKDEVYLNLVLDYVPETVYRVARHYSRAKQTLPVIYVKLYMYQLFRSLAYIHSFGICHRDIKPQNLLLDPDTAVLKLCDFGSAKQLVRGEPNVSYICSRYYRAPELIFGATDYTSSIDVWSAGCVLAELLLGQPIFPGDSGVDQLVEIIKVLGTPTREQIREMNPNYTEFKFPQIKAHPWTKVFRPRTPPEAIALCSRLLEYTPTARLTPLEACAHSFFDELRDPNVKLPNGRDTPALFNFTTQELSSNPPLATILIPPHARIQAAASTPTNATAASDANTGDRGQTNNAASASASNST
Description: (§1) The inhibitory effect of compounds according to the present invention on the activity of protein kinases, depicted in Table 1, can be measured according to the following protocol:
(§2) Pipettinq Sequence: • 1) Add 10 μl 4 fold concentrated Substrate+4 fold concentrated ATP in 3 fold concentrated Reaction Buffer to each well of Assay Plate • 2) Add 10 μl 4 fold concentrated inhibitor in 4% DMSO in H2O to each well except to C− and C+ wells • 3) Add 10 μl 4% DMSO in H2O to C− and C+ wells • 4) Add 10 μl 500 mM EDTA in H2O to − wells • 5) Add 10 μl 50 μCi/ml Adenosine 5′-[γ-^33P]triphosphate in H2O to each well • 6) Add 10 μl 4 fold concentrated kinase in Reaction Buffer to each well • 7) Incubate 1 hr at room temperature • 8) Add 10 μl 50 mM EDTA in H2O to each well except to C− wells • 9) Prepare MAPH plates by adding 200 μl 0.75% H3PO4 to each well • 10) Exhaust 0.75% H3PO4 using Millipore vacuum station • 11) Add 60 μl 0.75% H3PO4 to each well of MAPH Filter Plate • 12) Transfer 30 μl sample per well from Assay Plate to corresponding well of MAPH Filter Plate • 13) Incubate 30 min at room temperature • 14) Wash each well of MAPH Filter Plates 3× with 200 μl 0.75% H3PO4 using Millipore vacuum station. • 15) Add 20 μl Scintillation Liquid to each well of MAPH Filter Plate • 16) Seal MAPH Filter Plate • 17) Store MAPH Filter Plate 30 min in darkness • 18) Quantify radioactivity
(§3) The activity of these protein kinases is depicted as % inhibition in the presence of 10 μM of compound in comparison to DMSO (0% inhibition).

p56 Lck = p56 Lck (Homo sapiens, UniProt P06239); test: General kinase assay, selectivity panel: p56 Lck; details: 10 μM of compound, in comparison to DMSO (0% inhibition)
p56 Lck, sequence (P06239 whole entry): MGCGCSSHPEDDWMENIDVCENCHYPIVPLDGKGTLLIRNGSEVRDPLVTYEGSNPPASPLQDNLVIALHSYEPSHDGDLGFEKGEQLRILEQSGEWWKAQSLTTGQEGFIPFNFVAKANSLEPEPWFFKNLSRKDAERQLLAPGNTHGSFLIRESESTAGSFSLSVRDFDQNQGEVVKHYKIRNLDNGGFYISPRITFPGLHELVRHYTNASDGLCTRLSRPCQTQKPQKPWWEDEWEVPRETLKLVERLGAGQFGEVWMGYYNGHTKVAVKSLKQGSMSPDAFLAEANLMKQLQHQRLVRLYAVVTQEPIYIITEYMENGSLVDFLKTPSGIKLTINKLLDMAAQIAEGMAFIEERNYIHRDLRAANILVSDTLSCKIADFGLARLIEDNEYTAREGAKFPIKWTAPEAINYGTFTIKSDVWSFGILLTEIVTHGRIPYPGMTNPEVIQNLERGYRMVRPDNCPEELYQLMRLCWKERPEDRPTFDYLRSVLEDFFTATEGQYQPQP
Description: as §1, §2, §3

CDK1 = CDK1 (Homo sapiens, UniProt P06493); test: General kinase assay, selectivity panel: CDK1; details: 10 μM of compound, in comparison to DMSO (0% inhibition)
CDK1, sequence (P06493 whole entry, species assumed): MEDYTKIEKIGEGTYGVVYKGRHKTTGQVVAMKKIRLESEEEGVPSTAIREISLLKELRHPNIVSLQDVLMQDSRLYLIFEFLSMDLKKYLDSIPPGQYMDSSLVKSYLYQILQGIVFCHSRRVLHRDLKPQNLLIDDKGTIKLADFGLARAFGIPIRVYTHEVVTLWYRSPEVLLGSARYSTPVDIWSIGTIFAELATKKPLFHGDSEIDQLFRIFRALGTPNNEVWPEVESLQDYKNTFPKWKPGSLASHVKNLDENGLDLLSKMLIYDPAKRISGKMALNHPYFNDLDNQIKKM
CDK1, sequence (P14635 whole entry partner, species assumed): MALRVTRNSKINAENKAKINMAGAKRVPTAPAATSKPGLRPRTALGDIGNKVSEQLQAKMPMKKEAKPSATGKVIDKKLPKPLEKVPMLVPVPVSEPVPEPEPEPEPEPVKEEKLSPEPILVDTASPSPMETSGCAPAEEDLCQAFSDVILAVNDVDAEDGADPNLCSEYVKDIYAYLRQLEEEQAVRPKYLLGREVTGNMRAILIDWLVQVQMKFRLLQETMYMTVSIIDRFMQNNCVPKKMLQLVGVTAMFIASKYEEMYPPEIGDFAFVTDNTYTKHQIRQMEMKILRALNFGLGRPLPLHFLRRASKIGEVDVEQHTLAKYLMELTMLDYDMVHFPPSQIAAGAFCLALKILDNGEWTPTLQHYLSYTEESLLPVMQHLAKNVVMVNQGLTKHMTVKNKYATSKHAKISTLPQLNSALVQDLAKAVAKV
Description: as §1, §2, §3

EGFR = EGFR (Homo sapiens, UniProt P00533); test: General kinase assay, selectivity panel: EGFR; details: 10 μM of compound, in comparison to DMSO (0% inhibition)
EGFR, sequence (P00533 25-1210, species assumed): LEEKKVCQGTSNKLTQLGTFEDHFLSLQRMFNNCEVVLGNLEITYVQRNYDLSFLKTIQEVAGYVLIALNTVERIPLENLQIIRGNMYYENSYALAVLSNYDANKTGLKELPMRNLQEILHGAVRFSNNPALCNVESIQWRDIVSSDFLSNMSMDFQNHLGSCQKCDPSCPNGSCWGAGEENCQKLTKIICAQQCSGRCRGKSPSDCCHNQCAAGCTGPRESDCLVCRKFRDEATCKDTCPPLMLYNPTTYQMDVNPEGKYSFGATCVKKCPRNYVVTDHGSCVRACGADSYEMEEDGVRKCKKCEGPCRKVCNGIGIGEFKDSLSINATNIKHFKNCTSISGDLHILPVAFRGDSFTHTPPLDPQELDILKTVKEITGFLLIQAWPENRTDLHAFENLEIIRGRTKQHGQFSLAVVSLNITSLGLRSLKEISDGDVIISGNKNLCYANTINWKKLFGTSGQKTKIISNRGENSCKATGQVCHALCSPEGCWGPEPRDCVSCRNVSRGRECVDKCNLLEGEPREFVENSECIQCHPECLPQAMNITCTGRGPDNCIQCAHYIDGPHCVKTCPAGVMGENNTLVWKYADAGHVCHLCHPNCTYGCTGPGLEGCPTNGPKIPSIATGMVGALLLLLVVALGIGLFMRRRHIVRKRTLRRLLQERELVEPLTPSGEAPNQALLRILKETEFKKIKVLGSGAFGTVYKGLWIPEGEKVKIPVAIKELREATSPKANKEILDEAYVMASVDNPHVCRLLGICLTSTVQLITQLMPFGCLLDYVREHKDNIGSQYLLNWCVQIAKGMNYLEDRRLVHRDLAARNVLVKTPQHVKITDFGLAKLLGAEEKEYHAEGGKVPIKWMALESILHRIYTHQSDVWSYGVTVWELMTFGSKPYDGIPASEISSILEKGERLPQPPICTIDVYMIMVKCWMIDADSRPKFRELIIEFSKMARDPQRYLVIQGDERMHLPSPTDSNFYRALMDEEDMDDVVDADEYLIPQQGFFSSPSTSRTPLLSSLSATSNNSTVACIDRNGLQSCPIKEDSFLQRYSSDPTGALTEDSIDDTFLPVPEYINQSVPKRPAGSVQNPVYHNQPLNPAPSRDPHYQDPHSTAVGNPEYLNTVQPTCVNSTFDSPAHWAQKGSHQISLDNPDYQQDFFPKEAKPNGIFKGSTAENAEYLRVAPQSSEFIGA
Description: as §1, §2, §3

Row | Structure (SMILES) | IC50 (CDK2/CyclinA) | IC50 (CDK4) | IC50 (CDK9/Cyclin T1) | GSK-3β (% inhibition) (GSK-3β) | p56 Lck (% inhibition) (p56 Lck) | CDK1 (% inhibition) (CDK1) | EGFR (% inhibition) (EGFR)
1 | COc1ccccc1-c1cc(Nc2ccc(NC(=O)[C@@H]3Cc4ccccc4CN3)cc2)ncn1 [(65)] | 1000 to 10000 nM | 10000 to 250000 nM | 1 to 1000 nM | – | – | – | –
2 | COc1ccccc1-c1cc(Nc2ccc(NC(=O)C3(N)CCCCC3)cc2)ncn1 [(66)] | 1000 to 10000 nM | 1000 to 10000 nM | 1 to 1000 nM | – | – | – | –
3 | COc1ccccc1-c1cc(Nc2ccc(N)cc2)ncn1 [(22)] | 1 to 1000 nM | 1000 to 10000 nM | 1 to 1000 nM | – | – | – | –
4 | COc1ccccc1-c1cc(Nc2ccc(NC(=O)[C@@H](N)c3ccccc3)cc2)ncn1 [(81)] | 1000 to 10000 nM | 1000 to 10000 nM | 1 to 1000 nM | – | – | – | –
5 | COc1ccccc1-c1cc(Nc2ccc(NC(=O)[C@@H]3CCCCN3)cc2)ncn1 [(30)] | 1000 to 10000 nM | 1 to 1000 nM | 1 to 1000 nM | – | – | – | –
6 | NCCCOc1ccccc1-c1cc(Nc2ccc(NC(=O)c3ccc(N)cc3)cc2)ncn1 [(103)] | 1000 to 10000 nM | 10000 to 250000 nM | 1 to 1000 nM | – | – | – | –
7 | COc1ccccc1-c1cc(Nc2ccc(NC(C)=O)cc2)ncn1 [(10)] | 1 to 1000 nM | 1000 to 10000 nM | 1 to 1000 nM | – | – | – | –
8 | CN[C@H](C(=O)Nc1ccc(Nc2cc(-c3ccccc3OC)ncn2)cc1)c1ccccc1 [(82)] | 1000 to 10000 nM | 1000 to 10000 nM | 1 to 1000 nM | – | – | – | –
9 | Cc1ccc(Nc2cc(-c3cccc(O)c3)ncn2)cc1NS(C)(=O)=O [(105)] | 1 to 1000 nM | 10000 to 250000 nM | 1 to 1000 nM | – | – | – | –
10 | O=Cc1cccc(-c2cc(Nc3ccc(NC(=O)[C@@H]4CCCCN4)cc3)ncn2)c1 [(168)] | – | 1000 to 10000 nM | 1000 to 10000 nM | – | – | – | –
11 | COc1ccccc1-c1cc(Nc2ccc(C(N)=O)cc2)ncn1 [(14)] | 1 to 1000 nM | 10000 to 250000 nM | 1 to 1000 nM | – | – | – | –
12 | COc1ccccc1-c1cc(Nc2ccc(NC(=O)[C@@H](N)C(C)C)cc2)ncn1 [(143)] | 1000 to 10000 nM | 1000 to 10000 nM | 1 to 1000 nM | – | – | – | –
13 | CC(C)Oc1ccccc1-c1cc(Nc2ccc(NC(=O)c3ccc(N)cc3)cc2)ncn1 [Compound 58] | – | – | – | a (inhibition greater than 80%: a) | a (inhibition greater than 80%: a) | a (inhibition greater than 80%: a) | b (inhibition between 80 and 50%: b)
14 | COc1ccccc1-c1cc(Nc2ccc(NC(=O)CN(C)C)cc2)ncn1 [(46)] | 1000 to 10000 nM | 1000 to 10000 nM | 1 to 1000 nM | – | – | – | –
15 | COc1ccccc1-c1cc(Nc2cccc(NC(=O)[C@@H]3CCCCN3)c2)ncn1 [(128)] | 1 to 1000 nM | 1000 to 10000 nM | 1 to 1000 nM | – | – | – | –

The next lines start with the values.

Row | IC50 (CDK2/CyclinA) | IC50 (CDK4) | IC50 (CDK9/Cyclin T1) | GSK-3β (% inhibition) (GSK-3β) | p56 Lck (% inhibition) (p56 Lck) | CDK1 (% inhibition) (CDK1) | EGFR (% inhibition) (EGFR) | Structure (SMILES)
16 | 1000 to 10000 nM | 1 to 1000 nM | 1 to 1000 nM | – | – | – | – | CSc1ccccc1-c1cc(Nc2ccc(NC(=O)[C@@H]3CCCCN3)cc2)ncn1 [(189)]
17 | – | 1000 to 10000 nM | 1000 to 10000 nM | – | – | – | – | O=C(Nc1ccc(Nc2cc(-c3ccccc3OC(F)(F)F)ncn2)cc1)[C@@H]1CCCCN1 [(190)]
18 | 1000 to 10000 nM | 1 to 1000 nM | 1 to 1000 nM | – | – | – | – | CC(C)Oc1ccccc1-c1cc(Nc2ccc(NC(=O)[C@@H]3CCCCN3)cc2)ncn1 [(188)]
19 | 1000 to 10000 nM | 1000 to 10000 nM | 1 to 1000 nM | – | – | – | – | COc1ccccc1-c1cc(Nc2ccc(NC(=O)C3CCN(C)CC3)cc2)ncn1 [(89)]
20 | 1 to 1000 nM | 1 to 1000 nM | 1 to 1000 nM | – | – | – | – | NC1CCCCC1NC(=O)c1ccc(Nc2cc(-c3ccccc3OCc3ccccc3)ncn2)cc1 (centres unmarked) [(198)]
21 | 1 to 1000 nM | 1000 to 10000 nM | 1 to 1000 nM | – | – | – | – | COc1ccccc1-c1cc(Nc2ccc(NS(C)(=O)=O)cc2)ncn1 [(33)]
22 | 1000 to 10000 nM | 1 to 1000 nM | 1 to 1000 nM | – | – | – | – | COc1ccccc1-c1cc(Nc2ccc(NC(=O)CC3CCCCN3)cc2)ncn1 (centres unmarked) [(59)]
23 | 1000 to 10000 nM | 1 to 1000 nM | 1 to 1000 nM | – | – | – | – | COc1ccccc1-c1cc(Nc2ccc(NC(=O)CCN)cc2)ncn1 [(102)]
24 | 1000 to 10000 nM | 1 to 1000 nM | 1 to 1000 nM | – | – | – | – | COc1ccccc1-c1cc(Nc2ccc(NC(=O)[C@H]3CCCCN3)cc2)ncn1 [(69)]
25 | 1 to 1000 nM | 1 to 1000 nM | 1 to 1000 nM | – | – | – | – | COc1ccccc1-c1cc(Nc2ccc(C(=O)NC3CCCNC3)cc2)ncn1 (centres unmarked) [(86)]

— patent US8084457B2, “Pharmaceutically active 4,6-disubstituted aminopyrimidine derivatives as modulators of protein kinases” (Lead Discovery Center GmbH, priority 2003, dated 2011)
